Assays:
[1] = system: ion channels implicated in the cough reflex; experiment: Electrophysiology in-vitro examination; format: biochemical
[2] = system: eosinophilic/type-2 inflammation; details: series of preclinical studies in rat or mouse models of airway inflammation; cited from earlier work
[3] = system: target biomarkers in plasma; experiment: Target biomarkers in plasma; format: in vivo, human; details: p < 0.05
Procedure: All assessment timings were based on the morning dose. Pre-dose on Days 1 and 28 of each treatment period, blood samples were taken for pharmacokinetic analyses, followed by forced oscillation (including slow vital capacity manoeuvres for inspiratory capacity [IC] and vital capacity [VC]), spirometry (forced expiratory volume in 1 s [FEV1] and forced vital capacity [FVC]), and the COPD Assessment Test (CAT). Blood samples were also taken up to 12 h post-dose on Days 1 and 28 for pharmacokinetic analyses, with blood samples for biomarker assessment pre-dose on Day 1 and 2 h post-dose on Day 28, and spirometry pre-dose on Days 20 and 24. […]
Fold-change from baseline in cell counts, target biomarkers in sputum and blood, and PIP3 were log-transformed and analysed using an analysis of covariance (ANCOVA) model, with treatment, patient, and period as fixed effects, and baseline value as covariate. Changes from baseline in spirometry, forced oscillation and CAT endpoints were analysed using a similar ANCOVA model, but without log transformation. Rescue medication data were analysed using an analysis of variance model, including treatment, period and patient as fixed effects. […]

[4] = Cough episodes: daily diary and visual analogue scale; format: in vivo, human; details: for Mean cough VAS score (95% CI): VAS 100 mm, 0 no cough, 100 worst cough ever
Procedure: (§1) Fold-change from baseline in cell counts, target biomarkers in sputum and blood, and PIP3 were log-transformed and analysed using an analysis of covariance (ANCOVA) model, with treatment, patient, and period as fixed effects, and baseline value as covariate. Changes from baseline in spirometry, forced oscillation and CAT endpoints were analysed using a similar ANCOVA model, but without log transformation. Rescue medication data were analysed using an analysis of variance model, including treatment, period and patient as fixed effects. Other data, including the proportion of days on which patients coughed and the cough VAS results, are presented descriptively only. Further details, including the transcriptomics, mass-spectrometry and Olink proteomics, bioinformatics and multi-omic data integration are in the supplement.

[5] = Safety and tolerability: adverse events; details: safety set N = 42
Procedure: Safety and tolerability were evaluated throughout the study in terms of the occurrence of adverse events, blood chemistry, haematology and urinalysis, vital signs, and 12-lead electrocardiograms. […] Throughout the study, patients were permitted to use salbutamol as rescue medication, but not within 6 h prior to any spirometry assessment – any rescue medication intake was also captured in the daily diary.
The safety set, used in the analysis of all safety variables, was all randomised patients who received at least one dose of study drug. […] Given the cross-over design, the inclusion of patients in the analysis sets was defined on a per-period basis.

[6] = Forced oscillation and slow vital capacity manoeuvres; format: in vivo, human; details: Day 28
Procedure: All assessment timings were based on the morning dose. Pre-dose on Days 1 and 28 of each treatment period, blood samples were taken for pharmacokinetic analyses, followed by forced oscillation (including slow vital capacity manoeuvres for inspiratory capacity [IC] and vital capacity [VC]), spirometry (forced expiratory volume in 1 s [FEV1] and forced vital capacity [FVC]), and the COPD Assessment Test (CAT). Blood samples were also taken up to 12 h post-dose on Days 1 and 28 for pharmacokinetic analyses, with blood samples for biomarker assessment pre-dose on Day 1 and 2 h post-dose on Day 28, and spirometry pre-dose on Days 20 and 24. Sputum was induced prior to each treatment period for baseline determination of biomarkers, and post-dose on Day 20 for collection of phosphatidylinositol (3,4,5)-trisphosphate (PIP3), and on Days 24 and 28 for collection of biomarkers.
as §1
The Resmon PRO FULL device (MGC Diagnostics/Medisoft, St Paul, MN, USA) was used to evaluate the forced oscillometry endpoints. Patients in a sitting position and with their nose clipped supported their cheeks to reduce upper airway shunting while small amplitude pressure stimuli were applied during tidal breathing, with each manoeuvre performed in triplicate. The response of the respiratory system to this stimulation was used to derive respiratory mechanical impedance (Zrs), which comprises resistance (Rrs) and reactance (Xrs). In addition, the small amplitude pressure stimuli was also applied during execution of an expiratory slow vital capacity manoeuvre (SVC) to record inspiratory capacity (IC) and vital capacity (VC).
Central and peripheral airway mechanics were measured using a multi frequency stimulating waveform at 5, 11, and 19 Hz, to derive the following: […]

[7] = system: proteins in sputum; experiment: Olink proteomics in sputum (Target 96 Inflammation and Target 48 Cytokine panels); format: in vivo, human
Procedure: For the proteomics evaluation, sputum samples were run on the Target 48 Cytokine panel, and the Target 96 Inflammation panel (Olink Protemics, Uppsala, Sweden). In the Target 48 Cytokine panel, 45 cytokines were quantified in terms of their absolute concentration. For the Target 96 Inflammation panel, 92 proteins involved in inflammation processes were evaluated, with the results expressed as Normalized Protein eXpression (NPX; the manufacturer’s arbitrary unit, in Log2 scale). […] In the statistical model, using sputum Target 96 and 48 data, change from pre-dose to post-dose expression were used as dependent variable, and patient, period, treatment and pre-dose expression as independent variable.

In the case of C[C@@H](c1oc(=O)c2ccccc2c1-c1cccc(CN2CCN(C)CC2)c1)n1nc(-c2cncc(O)c2)c2c(N)ncnc21 [CHF6523], the “Impact on ion channels implicated in the cough reflex” value [1] is listed as “no discernible impact”, the “Inhibition of eosinophilic/type-2 inflammation” value [2] is listed as “potent inhibition of eosinophilic/type-2 inflammation comparable to that of nemiralisib” and the “CHF6523–placebo differences in the target biomarkers in plasma” value [3] is listed as “no statistically significant”. The “Days on which patients coughed, adjusted mean” value ([4]; daily diary, 2 mg twice daily inhaled, 95% CI 63.5%, 84.5%) was 74.0%, the “Mean cough VAS score (95% CI)” value ([4]; evening) was 31.3 (22.1, 40.4) mm and the “Cough events not resolving within 1 h after inhalation” value ([4]; in vivo) was 3.2%. For the same compound, the “Mean cough VAS score (95% CI)” value ([4]; morning) was 30.3 (95% CI 21.3, 39.3) mm, the “Adverse events leading to death” value [5] was 0 Patients (%) and the “Adverse events: COVID-19” value [5] was 5 (11.9%) Patients (%). For the same compound, the “Breaths where expiratory flow limitation was present, adjusted mean change from baseline (95% CI)” value [6] was 4.960 (–2.008, 11.928) %, the “Breaths where expiratory flow limitation was present, adjusted mean difference CHF6523 vs placebo (95% CI)” value [6] was 6.482 (–3.182, 16.145); p=0.179% and the “Inspiratory capacity, adjusted mean change from baseline (95% CI)” value [6] was “–0.175 (–0.264, –0.085) (N=26) L”. For the same compound, the “Inspiratory capacity, adjusted mean difference CHF6523 vs placebo (95% CI)” value [6] was “–0.062 (–0.191, 0.066); p=0.320 L”, the “Mean inspiratory flow, adjusted mean change from baseline (95% CI)” value [6] was 0.023 (0.006, 0.041) L/sec and the “Reactance at 5 Hz, expiratory, adjusted mean change from baseline (95% CI)” value [6] was “–0.336 (–0.801, 0.130) cmH2O/L/sec”. The “Reactance at 5 Hz, expiratory, adjusted mean difference CHF6523 vs placebo (95% CI)” value [6] was “–0.284 (–0.919, 0.351); p=0.365 cmH2O/L/sec”, the “Reactance at 5 Hz, inspiratory, adjusted mean change from baseline (95% CI)” value [6] was “–0.119 (–0.307, 0.068) cmH2O/L/sec” and the “Reactance at 5 Hz, inspiratory, adjusted mean difference CHF6523 vs placebo (95% CI)” value [6] was “–0.141 (–0.399, 0.117); p=0.272 cmH2O/L/sec”. For the same compound, the “Reactance at 5 Hz, total, adjusted mean change from baseline (95% CI)” value [6] was “–0.263 (–0.623, 0.097) cmH2O/L/sec”, the “Reactance at 5 Hz, total, adjusted mean difference CHF6523 vs placebo (95% CI)” value [6] was “–0.237 (–0.729, 0.256); p=0.332 cmH2O/L/sec” and the “Reactance at 19 Hz, expiratory, adjusted mean change from baseline (95% CI)” value [6] was “–0.025 (–0.226, 0.177) cmH2O/L/sec”. For the same compound, the “Reactance at 19 Hz, expiratory, adjusted mean difference CHF6523 vs placebo (95% CI)” value [6] was 0.079 (–0.198, 0.357); p=0.563 cmH2O/L/sec, the “Reactance at 19 Hz, inspiratory, adjusted mean change from baseline (95% CI)” value [6] was “–0.113 (–0.257, 0.031) cmH2O/L/sec” and the “Reactance at 19 Hz, inspiratory, adjusted mean difference CHF6523 vs placebo (95% CI)” value [6] was “–0.072 (–0.270, 0.127); p=0.464 cmH2O/L/sec”. The “Reactance at 19 Hz, total, adjusted mean change from baseline (95% CI)” value [6] was “–0.058 (–0.229, 0.112) cmH2O/L/sec”, the “Reactance at 19 Hz, total, adjusted mean difference CHF6523 vs placebo (95% CI)” value [6] was 0.027 (–0.208, 0.262); p=0.814 cmH2O/L/sec and the “Resistance at 5 Hz minus resistance at 19 Hz, expiratory, adjusted mean change from baseline (95% CI)” value [6] was 0.112 (–0.080, 0.305) cmH2O/L/sec. For the same compound, the “Resistance at 5 Hz minus resistance at 19 Hz, expiratory, adjusted mean difference CHF6523 vs placebo (95% CI)” value [6] was “–0.112 (–0.377, 0.153); p=0.392 cmH2O/L/sec”, the “Resistance at 5 Hz minus resistance at 19 Hz, inspiratory, adjusted mean change from baseline (95% CI)” value [6] was 0.198 (0.075, 0.321) cmH2O/L/sec and the “Resistance at 5 Hz minus resistance at 19 Hz, inspiratory, adjusted mean difference CHF6523 vs placebo (95% CI)” value [6] was 0.147 (–0.022, 0.317); p=0.085 cmH2O/L/sec. For the same compound, the “Resistance at 5 Hz minus resistance at 19 Hz, total, adjusted mean change from baseline (95% CI)” value [6] was 0.158 (0.018, 0.299) cmH2O/L/sec, the “Resistance at 5 Hz minus resistance at 19 Hz, total, adjusted mean difference CHF6523 vs placebo (95% CI)” value [6] was “–0.008 (–0.203, 0.186); p=0.929 cmH2O/L/sec” and the “Resistance at 5 Hz, expiratory, adjusted mean change from baseline (95% CI)” value [6] was 0.112 (–0.149, 0.373) cmH2O/L/sec. The “Resistance at 5 Hz, expiratory, adjusted mean difference CHF6523 vs placebo (95% CI)” value [6] was “–0.118 (–0.485, 0.248); p=0.513 cmH2O/L/sec”, the “Resistance at 5 Hz, inspiratory, adjusted mean change from baseline (95% CI)” value [6] was 0.216 (0.066, 0.366) cmH2O/L/sec and the “Resistance at 5 Hz, inspiratory, adjusted mean difference CHF6523 vs placebo (95% CI)” value [6] was 0.057 (–0.150, 0.264); p=0.574 cmH2O/L/sec. The “Resistance at 5 Hz, total, adjusted mean change from baseline (95% CI)” value [6] was 0.172 (–0.013, 0.356) cmH2O/L/sec, the “Resistance at 5 Hz, total, adjusted mean difference CHF6523 vs placebo (95% CI)” value [6] was “–0.051 (–0.309, 0.207); p=0.686 cmH2O/L/sec” and the “Resistance at 19 Hz, expiratory, adjusted mean change from baseline (95% CI)” value [6] was “–0.002 (–0.179, 0.176) cmH2O/L/sec”. The “Resistance at 19 Hz, expiratory, adjusted mean difference CHF6523 vs placebo (95% CI)” value [6] was “–0.009 (–0.261, 0.242); p=0.939 cmH2O/L/sec”, the “Resistance at 19 Hz, inspiratory, adjusted mean change from baseline (95% CI)” value [6] was 0.021 (–0.094, 0.136) cmH2O/L/sec and the “Resistance at 19 Hz, inspiratory, adjusted mean difference CHF6523 vs placebo (95% CI)” value [6] was “–0.086 (–0.245, 0.072); p=0.272 cmH2O/L/sec”. The “Resistance at 19 Hz, total, adjusted mean change from baseline (95% CI)” value [6] was 0.016 (–0.125, 0.156) cmH2O/L/sec, the “Resistance at 19 Hz, total, adjusted mean difference CHF6523 vs placebo (95% CI)” value [6] was “–0.040 (–0.236, 0.157); p=0.683 cmH2O/L/sec” and the “Resonance frequency, adjusted mean change from baseline (95% CI)” value [6] was 0.167 (–0.960, 1.293) Hz. For the same compound, the “Resonance frequency, adjusted mean difference CHF6523 vs placebo (95% CI)” value [6] was 0.106 (–1.434, 1.646); 0.888 Hz, the “Respiratory rate, adjusted mean change from baseline (95% CI)” value [6] was 0.268 (–0.359, 0.895) breaths/min and the “Respiratory rate, adjusted mean difference CHF6523 vs placebo (95% CI)” value [6] was 0.784 (–0.078, 1.646); 0.073 breaths/min. For the same compound, the “Tidal expiratory flow limitation, adjusted mean change from baseline (95% CI)” value [6] was 0.214 (–0.130, 0.557) cmH2O/L/sec, the “Tidal expiratory flow limitation, adjusted mean difference CHF6523 vs placebo (95% CI)” value [6] was 0.111 (–0.359, 0.582); p=0.630 cmH2O/L/sec and the “Tidal volume, adjusted mean change from baseline (95% CI)” value [6] was 0.003 (–0.029, 0.036) L. For the same compound, the “Tidal volume, adjusted mean difference CHF6523 vs placebo (95% CI)” value [6] was 0.011 (–0.034, 0.056); p=0.620 L, the “Vital capacity, adjusted mean change from baseline (95% CI)” value [6] was “–0.083 (–0.243, 0.076) (N=26) L” and the “Vital capacity, adjusted mean difference CHF6523 vs placebo (95% CI)” value [6] was “–0.018 (–0.243, 0.207); p=0.871 L”. For the same compound, the “CHF6523–placebo difference in inspiratory flow” value ([6]; p=0.015) was 29 mL/s, the “Mean inspiratory flow, adjusted mean difference CHF6523 vs placebo (95% CI)” value ([6]; p=0.015) was 0.029 (0.006, 0.052); p=0.015 L/sec and the “Fold change in the Olink panels: IL-1B” value [7] was 0.771. The “Fold change in the Olink panels: IL-6” value [7] was 1.516, the “Fold change in the Olink panels: IL-8” value [7] was 1.151 and the “Fold change in the Olink panels: MCP-1” value [7] was 0.732. The “Fold change in the Olink panels: TNF” value [7] was 0.821 and the “Proteins significantly modulated by treatment, of the 74 evaluated” value ([7]; FDR < 0.05) was “none were significantly modulated by treatment”.

Reference: article PMC11491004, “CHF6523 data suggest that the phosphoinositide 3-kinase delta isoform is not a suitable target for the management of COPD” (Respiratory Research, 2024)
